For three compounds, IC50 results are on record in patent US11787791B2, “Inhibitors of VAP-1” (ACUCELA INC., priority 2018, dated 2023).

For orientation: pIC50 means −log10 of the IC50, conventionally taken in molar units.

Assay type in all cases: biochemical
The target in assay [1] is rhVAP-1 (Homo sapiens (Human), UniProt Q16853). Nature of the assay: VAP-1 fluorometric assay (Amplex Red/HRP, H2O2 from oxidative deamination of benzylamine). Particulars: rhVAP-1, 50 μM benzylamine, 30 minutes at 37° C., pH 7.4. Here is the method: The capability of compounds described herein to inhibit the enzymatic activity of vascular adhesion protein-1 (VAP-1) was determined by fluorometric assay. The assay procedure provided by R&D Systems was modified slightly for use as an inhibitor screening assay. The assay measured the H2O2 generated from the oxidative deamination of benzylamine by rhVAP-1 by converting Amplex® Red to the fluorescent product, resorufin, via horseradish peroxidase (HRP) and H2O2. Reaction buffer was 10 mM NaHCO3, pH 7.4. A standard curve was prepared by serially diluting H2O2 in reaction buffer. A 10 μM solution of resorufin was prepared in reaction buffer and was dispensed to 2 wells. These wells served as positive control for maximum fluorescence. Reaction buffer was added to the individual wells so that the final volume in each well was 100 μL. Amplex Red was diluted to 1 mM in reaction buffer. A 10 U stock of HRP was prepared in reaction buffer. A reaction cocktail was prepared by mixing equal parts 1 mM Amplex Red with 10 U HRP with 3 parts reaction buffers. The reaction cocktail was added to the appropriate wells, so that that final concentration in the well was 0.05 mM Amplex Red and 0.5 U HRP. A 200 μM solution of benzylamine was prepared in reaction buffer. Benzylamine was added to the appropriate wells so that the final concentration was 50 μM. Inhibitors were diluted in DMSO to 20× and distributed to the appropriate wells. UP-1207 served a positive control. rhVAP-1 was purchased from R&D Systems. The concentration used for each lot was determined so that the activity was equal to the first lot. […] The plate was read at […]. […]
The capability of compounds described herein to inhibit the enzymatic activity of vascular adhesion protein-1 (VAP-1) was determined by fluorometric assay. […] The assay measured the H2O2 generated from the oxidative deamination of benzylamine by rhVAP-1 by converting Amplex® Red to the fluorescent product, resorufin, via horseradish peroxidase (HRP) and H2O2. […] The plate was read at 530/35 emission and 590/35 excitation. […]

In assay [2] the target is rhMAO-A (Homo sapiens (Human), UniProt P21397). As to the kind of experiment: MAO-A inhibition assay (modified Promega MAO-Glo). Particulars: substrate 10 μM, 1 hour at room temperature. Here is the method:
(§1) The capability of compounds described herein to inhibit MAO was determined using a modified Promega MAO-Glo™ assay kit. The substrate ((4S)-4,5-dihydro-2-(6-hydroxybenzothiazolyl)-4-thiazolecarboxylic acid) was converted by MAO to produce methyl ester luciferin. The luciferin was then converted by luciferase to produce oxyluciferin and light. The light was measured using a luminescence setting on the plate reader. A standard curve was prepared by serially diluting luciferin in reaction buffer. The standard kit reaction buffer was used—100 mM HEPES (pH 7.5), 5% glycerol. The substrate was dispensed into the wells so that the final concentration for MAO-A inhibition assay would be 10 μM and MAO-B inhibition assay would be 1 μM. Inhibitors were diluted in DMSO to 4× and distributed to the appropriate wells. Clorgyline and Deprenyl served as positive controls. rhMAO-A and rhMAO-B were purchased from Sigma. MAO-A or MAO-B was added to the appropriate wells. The plate was incubated for 1 hour, at room temperature with gentle shaking (90 rpm). The detection agent was added at equal volume (48 μL detection agent to 48 μL reaction). The plate was incubated for 20 minutes, at room temperature with gentle shaking (90 rpm). The plate luminescence was read. Data processing was performed using Prism software.
(§2) The capability of compounds described herein to inhibit MAO was determined using a modified Promega MAO-Glo™ assay. Test compounds, substrate and enzyme were incubated per manufacturer instructions for 1 hour, at room temperature with gentle shaking (90 rpm) before addition of detection agent. The detection agent was added at equal volume (48 μL detection agent to 48 μL reaction). The plate was incubated for 20 minutes, at room temperature with gentle shaking (90 rpm). The plate luminescence was read. Data processing was performed using Prism software.

Assay [3] addresses rhMAO-B (Homo sapiens (Human), UniProt P27338). Nature of the assay: MAO-B inhibition assay (modified Promega MAO-Glo). Here is the method: as §1, §2
[4] abbreviates: rhMAO-B, substrate 1 μM, 1 hour at room temperature, read-out: MAO B IC50.

pIC50: −log10 of the molar value. Where two headings read alike, the source gives them in different places.

rhMAO-A, sequence (P21397 whole entry): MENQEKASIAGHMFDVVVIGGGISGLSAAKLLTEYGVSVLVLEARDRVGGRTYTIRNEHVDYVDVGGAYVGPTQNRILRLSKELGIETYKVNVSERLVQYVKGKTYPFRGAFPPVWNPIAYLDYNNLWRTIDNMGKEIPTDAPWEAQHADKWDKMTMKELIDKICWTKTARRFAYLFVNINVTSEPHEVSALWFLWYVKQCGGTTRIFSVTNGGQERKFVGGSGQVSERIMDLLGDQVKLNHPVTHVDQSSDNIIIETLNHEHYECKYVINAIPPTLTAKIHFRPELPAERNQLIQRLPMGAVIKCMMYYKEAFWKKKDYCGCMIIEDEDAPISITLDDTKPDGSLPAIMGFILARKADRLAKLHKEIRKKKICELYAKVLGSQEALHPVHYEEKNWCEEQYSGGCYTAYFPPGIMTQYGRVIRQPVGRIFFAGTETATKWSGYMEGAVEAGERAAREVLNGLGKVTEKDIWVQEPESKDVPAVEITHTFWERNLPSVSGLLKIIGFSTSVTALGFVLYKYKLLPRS
rhMAO-B, sequence (P27338 whole entry): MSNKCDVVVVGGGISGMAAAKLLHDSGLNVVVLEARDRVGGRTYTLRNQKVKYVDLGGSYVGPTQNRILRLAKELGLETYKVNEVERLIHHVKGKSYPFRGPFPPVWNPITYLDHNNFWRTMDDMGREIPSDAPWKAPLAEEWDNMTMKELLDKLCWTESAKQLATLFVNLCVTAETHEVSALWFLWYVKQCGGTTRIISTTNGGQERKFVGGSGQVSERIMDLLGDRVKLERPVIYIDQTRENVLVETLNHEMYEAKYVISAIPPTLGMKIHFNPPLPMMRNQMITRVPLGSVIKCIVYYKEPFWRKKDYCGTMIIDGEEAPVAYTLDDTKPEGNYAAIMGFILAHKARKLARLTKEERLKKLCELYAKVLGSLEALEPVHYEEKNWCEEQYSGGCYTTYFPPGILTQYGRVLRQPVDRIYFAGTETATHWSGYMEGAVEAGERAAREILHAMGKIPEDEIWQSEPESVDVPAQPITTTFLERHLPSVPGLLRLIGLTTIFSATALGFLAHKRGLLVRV
rhVAP-1, sequence (Q16853 whole entry): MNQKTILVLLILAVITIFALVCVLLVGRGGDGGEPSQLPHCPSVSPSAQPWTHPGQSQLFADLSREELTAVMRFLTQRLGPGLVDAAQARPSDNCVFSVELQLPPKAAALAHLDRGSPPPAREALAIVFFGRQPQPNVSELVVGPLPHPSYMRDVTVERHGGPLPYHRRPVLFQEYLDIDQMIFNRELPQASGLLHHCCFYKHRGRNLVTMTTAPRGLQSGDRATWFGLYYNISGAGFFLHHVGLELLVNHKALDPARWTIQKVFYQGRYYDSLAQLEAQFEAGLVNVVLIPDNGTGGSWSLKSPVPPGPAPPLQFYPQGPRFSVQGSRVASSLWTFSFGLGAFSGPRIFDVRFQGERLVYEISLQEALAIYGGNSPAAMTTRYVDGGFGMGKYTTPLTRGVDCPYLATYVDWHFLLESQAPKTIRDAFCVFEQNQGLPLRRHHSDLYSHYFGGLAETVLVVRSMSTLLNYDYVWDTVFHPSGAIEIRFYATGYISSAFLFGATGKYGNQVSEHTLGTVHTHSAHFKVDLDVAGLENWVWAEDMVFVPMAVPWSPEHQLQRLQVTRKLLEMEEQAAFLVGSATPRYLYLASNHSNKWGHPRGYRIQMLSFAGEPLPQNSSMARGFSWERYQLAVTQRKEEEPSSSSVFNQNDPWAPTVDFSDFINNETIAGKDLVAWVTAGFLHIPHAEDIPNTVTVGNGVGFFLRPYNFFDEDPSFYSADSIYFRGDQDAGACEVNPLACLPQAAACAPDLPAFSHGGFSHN

As for `CC1CCN(c2nc3ccc(OC/C(=C/F)CN)cc3o2)C1` (stereo not drawn) [Example 30, (E)-3-fluoro-2-(((2-(3-methylpyrrolidin-1-yl)benzo[d]oxazol-6-yl)oxy)methyl)prop-2-en-1-amine 4-methylbenzenesulfonate], the pIC50 is over 7.00 in assay [1], 4.52 to 5.00 in assay [2] and 6.00 to 7.00 in assay [3] (setting [4]).
In the same order, the values of `CC1CCN(c2nc3ccc(OC/C(=C\F)CN)cc3o2)C1` (stereo not drawn) [Example 42, (Z)-3-fluoro-2-(((2-(3-methylpyrrolidin-1-yl)benzo[d]oxazol-6-yl)oxy)methyl)prop-2-en-1-amine 4-methylbenzenesulfonate] are over 7.00, 5.00 to 6.00 and 5.00 to 6.00.
Regarding `CCCCn1nc2ccc(OC/C(=C\F)CN)cc2n1` [Example 66, (Z)-2-(((2-butyl-2H-benzo[d][1,2,3]triazol-5-yl)oxy)methyl)-3-fluoroprop-2-en-1-amine 4-methylbenzenesulfonate], the pIC50 in assay [1] was over 7.00; in assay [2], 5.00 to 6.00; in assay [3], 6.00 to 7.00.
